According to patent US6720342B2, “Heterocyclic compounds and their preparation and use” (Novo Nordisk A/S, priority 1996, dated 2004):
Structures can show the parent of a compound that is named as a salt.

Tests used:
[1] = biological target: T1, muscarinic receptors (M1-site, pirenzepine sensitive site) (Rattus norvegicus, UniProt P08482); assay: Inhibition of 3H-PRZ (pirenzepine, [N-methyl-3H]) binding to rat cerebral cortex membranes; conditions: 1.0 nM 3H-Pirenzepine, 60 min at 20° C.
T1 construct: Fresh cortex (0.1-1 g) from male Wistar rats (150-200 g) is homogenized; from tissue; host or cells: rat (male Wistar) cerebral cortex membranes
T1 sequence (P08482 1-460): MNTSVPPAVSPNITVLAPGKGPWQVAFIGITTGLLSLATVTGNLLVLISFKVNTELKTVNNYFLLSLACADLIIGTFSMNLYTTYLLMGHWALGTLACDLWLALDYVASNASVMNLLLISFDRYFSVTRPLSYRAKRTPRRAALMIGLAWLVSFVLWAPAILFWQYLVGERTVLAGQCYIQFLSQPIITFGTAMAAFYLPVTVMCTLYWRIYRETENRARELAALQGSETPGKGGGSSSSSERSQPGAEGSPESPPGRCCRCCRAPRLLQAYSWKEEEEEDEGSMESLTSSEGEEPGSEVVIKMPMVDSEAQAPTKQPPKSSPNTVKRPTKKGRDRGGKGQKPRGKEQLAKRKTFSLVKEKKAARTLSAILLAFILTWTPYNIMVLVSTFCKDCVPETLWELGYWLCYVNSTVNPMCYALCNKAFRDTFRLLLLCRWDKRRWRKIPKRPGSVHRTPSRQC
Description: Furthermore the pharmacological properties of the compounds of the invention can also be illustrated by determining their capability to inhibit ^3H-PRZ (pirenzepine, [N-methyl-^3H]) binding to rat cerebral cortex membranes. Pirenzepine binds selectively to subtype of muscarinic receptors. Historically the type is named the M1-site, whereas pirenzepine sensitive site would be more appropriate. Although selective for M1-sites pirenzepine also interact with M2-sites.
(§1) All preparations are performed at 0-4° C. unless otherwise indicated. Fresh cortex (0.1-1 g) from male Wistar rats (150-200 g) is homogenized for 5-10 s. in 10 ml 20 mM Hepes pH: 7.4, with an Ultra-Turrax homogenizer. The homogenizer is rinsed with 2×10 ml of buffer and the combined suspension centrifuged for 15 min at 40,000×g. The pellet is washed three times with buffer. In each step the pellet is homogenized as before in 3×10 ml of buffer and centrifuged for 10 min at 40,000×g.
The final pellet is homogenized in 20 mM Hepes pH: 7.4 (100 ml per g of original tissue) and used for binding assay. Aliquots of 0.5 ml is added 20 μl of test solution and 25 μl of ^3H-Pirenzepine (1.0 nM, final conc.), mixed and incubated for 60 min at 20° C. Non-specific binding is determined in triplicate using atropine (1 μg/ml, final conc.) as the test substance. After incubation samples are added 5 ml of ice-cold buffer and poured directly onto Whatman GF/C glass fiber filters under suction and immediately washed 2 times with 5 ml of ice-cold buffer. The amount of radioactivity on the filters are determined by conventional liquid scintillation counting. Specific binding is total binding minus non-specific binding.
Test substances are dissolved in 10 ml water, at a concentration of 0.22 mg/ml. 25-75% inhibition of specific binding must be obtained before calculation of IC50.
The test value will be given as IC50 (the concentration (nM) of the test substance which inhibits the specific binding of ^3H-PRZ by 50%).
(§2) IC50=(applied test substance concentration)×(Cx/Co−Cx)nM
(§3) where Co is specific binding in control assays and Cx is the specific binding in the test assay. (The calculations assume normal mass-action kinetics).

[2] = biological target: muscarinic acetylcholine receptors; assay: Inhibition of specific binding of 3H-Oxotremorine-M (3H-Oxo) to rat cortex membranes; conditions: rat cortex homogenate, 1.0 nM 3H-Oxotremorine, 30 min at 25° C.
Description: The pharmacological properties of the compounds of the invention can be illustrated by determining their capability to inhibit the specific binding of ^3H-Oxotremorine-M (^3H-Oxo). Birdsdall N. J. M., Hulme E. C., and Burgen A. S. V. (1980). “The Character of Muscarinic Receptors in Different Regions of the Rat Brain”. Proc. Roy. Soc. London (Series B) 207, 1.
^3H-Oxo labels muscarinic receptor in the CNS (with a preference for agonist domains of the receptors). Three different sites are labelled by ^3H-Oxo. […] Using the present experimental conditions only the high and medium affinity sites are determined.
The inhibitory effects of compounds on ^3H-Oxo binding reflects the affinity for muscarinic acetylcholine receptors.
as §1, with “(150-250” for “(150-200”, “s” for “s.”, “10” for “2×10”, “min.” for “min”, “2×10” for “3×10”
The final pellet is homogenized in 20 mM Hepes pH: 7.4 (100 ml per g of original tissue) and used for binding assay. Aliquots of 0.5 ml is added 25 μl of test solution and 25 μl of ^3H-Oxotremorine (1.0 nM, final concentration) mixed and incubated for 30 min. at 25° C. Non-specific binding is determined in triplicate using arecoline (1 μg/ml, final concentration) as the test substance. After incubation samples are added 5 ml of ice-cold buffer and poured directly onto Whatman GF/C glass fiber filters under suction and immediately washed 2 times with 5 ml of ice-cold buffer. The amount of radioactivity on the filters are determined by conventional liquid scintillation counting. Specific binding is total binding minus non specific binding.
Test substances are dissolved in 10 ml water (if necessary heated on a steambath for less than 5 min.) at a concentration of 2.2 mg/ml. 25-75% inhibition of specific binding must be obtained before calculation of IC50.
The test value will be given as IC50 (the concentration (nM) of the test substance which inhibits the specific binding of ^3H-Oxo by 50%).
as §2, §3

Row | Structure (SMILES) | IC50 [1] | IC50 [2] | melting point
1 | CCCSc1nsnc1OC1CN2CCC1C2 (stereo not drawn) (as salt: oxalate) [Compound 2, Endo 3-(3-propylthio-1,2,5-thiadiazol-4-yloxy)-1-azabicyclo[2.2.1]heptane, oxalate] |  |  | 136 to 137 °C
2 | C(#Cc1ccccc1)COc1nsnc1OC1CN2CCC1C2 (stereo not drawn) (as salt: oxalate) [Compound 5, Endo 3-(3-[3-phenyl-2-propynyl-1-oxy]-1,2,5-thiadiazol-4-yloxy)-1-azabicyclo[2.2.1]heptane, oxalate] |  |  | 158 to 159 °C
3 | COc1cccc(C#CCOc2nsnc2OC2CN3CCC2C3)c1 (stereo not drawn) (as salt: oxalate) [Compound 6, Endo 3-(3-[3-(3-methoxyphenyl)-2-propynyl-1-oxy]-1,2,5-thiadiazol-4-yloxy)-1-azabicyclo[2.2.1]heptane, oxalate] |  |  | 142 to 143 °C
4 | CC(C)=CCOc1nsnc1OC1CN2CCC1C2 (stereo not drawn) (as salt: oxalate) [Compound 7, Endo 3-(3-[3-methyl-2-butenyl-1-oxy]-1,2,5-thiadiazol-4-yloxy)-1-azabicyclo[2.2.1]heptane, oxalate] |  |  | 112 to 115 °C
5 | C(CC1CC1)Oc1nsnc1OC1CN2CCC1C2 (stereo not drawn) (as salt: oxalate) [Compound 8, Endo 3-(3-[2-cyclopropylethyl-1-oxy]-1,2,5-thiadiazol-4-yloxy)-1-azabicyclo[2.2.1]heptane, oxalate] |  |  | 132 to 133 °C
6 | Fc1ccc(COc2nsnc2OC2CN3CCC2C3)cc1 (stereo not drawn) (as salt: oxalate) [Compound 9, Endo 3-(3-[4-fluorobenzyloxy]-1,2,5-thiadiazol-4-yloxy)-1-azabicyclo-[2.2.1]heptane, oxalate] |  |  | 144 to 145 °C
7 | CC=CCOc1nsnc1OC1CN2CCC1C2 (stereo not drawn) (as salt: oxalate) [Compound 10, Endo 3-(3-[2-butenyl-1-oxy]-1,2,5-thiadiazol-4-yloxy)-1-azabicyclo[2.2.1]heptane, oxalate] |  |  | 129 to 131 °C
8 | CC#CCOc1nsnc1OC1CN2CCC1C2 (stereo not drawn) (as salt: oxalate) [Compound 11, Endo 3-(3-[2-butynyl-1-oxy]-1,2,5-thiadiazol-4-yloxy)-1-azabicyclo[2.2.1]heptane, oxalate] |  |  | 194 to 196 °C
9 | CSCCOc1nsnc1OC1CN2CCC1C2 (stereo not drawn) (as salt: oxalate) [Compound 12, Endo 3-(3-methylthioethoxy-1,2,5-thiadiazol-4-yloxy)-1-azabicyclo-[2.2.1]heptane, oxalate] |  |  | 117 to 119 °C
10 | COCCOc1nsnc1OC1CN2CCC1C2 (stereo not drawn) (as salt: oxalate) [Compound 13, Endo 3-(3-methoxyethoxy-1,2,5-thiadiazol-4-yloxy)-1-azabicyclo[2.2.1]heptane, oxalate] |  |  | 139 to 141 °C
11 | C(#Cc1cccnc1)COc1nsnc1OC1CN2CCC1C2 (stereo not drawn) [Compound 23, Endo 3-(3-(3-pyridyl)-2-propyn-1-yloxy)-1,2,5-thiadiazol-4-yloxy)-1-azabicyclo[2.2.1]heptane, dioxalate] | 13 nM | 1.6 nM | 
12 | C(#Cc1ccccn1)COc1nsnc1OC1CN2CCC1C2 (stereo not drawn) [Compound 25, Endo 3-(3-(2-pyridyl)-2-propyn-1-yloxy)-1,2,5-thiadiazol-4-yloxy)-1-azabicyclo[2.2.1]heptane, dioxalate] | 4.5 nM | 1.7 nM | 
13 | N#CCCSc1nsnc1OC1CN2CCC1C2 (stereo not drawn) [Compound 32, Endo 3-(3-[2-cyanoethylthio]-1,2,5-thiadiazol-4-yloxy)-1-azabicyclo-[2.2.1]heptane, oxalate] | 34 nM | 3.1 nM | 
14 | C(#Cc1cccs1)COc1nsnc1O[C@H]1CN2CC[C@@H]1C2 [Compound 37, Endo 3-(3-[3-(2-thienyl)-2-propyn-1-yloxy]-1,2,5-thiadiazol-4-yloxy)-1-azabicyclo[2.2.1]heptane, oxalate] | 8.7 nM | 2.2 nM | 
15 | COc1cccc(C#CC(Oc2nsnc2OC2CN3CCC2C3)C(C)C)c1 (stereo not drawn) [Compound 39, Endo 3-(3-[1-(3-methoxyphenyl)-4-methyl-1-pentyn-3-yloxy]-1,2,5-thiadiazol-4-yloxy)-1-azabicyclo[2.2.1]heptane, oxalate] | 56 nM | 105 nM | 

The next lines start with results.

Row | IC50 [1] | IC50 [2] | Structure (SMILES) | melting point
16 | 100 nM | 302 nM | CC(C#Cc1ccc(F)cc1)=CCOc1nsnc1OC1CN2CCC1C2 (stereo not drawn) [Compound 21, Endo (Z)-3-(3-(5-(4-fluorophenyl)-3-methyl-2-penten-4-yn-1-yloxy)-1,2,5-thiadiazol-4-yloxy)-1-azabicyclo[2.2.1]heptane] | 
17 | 3.9 nM | 1.3 nM | C(#Cc1ccoc1)COc1nsnc1OC1CN2CCC1C2 (stereo not drawn) [Compound 26, Endo 3-(3-(3-(3-furyl)-2-propyn-1-yloxy)-1,2,5-thiadiazol-4-yloxy)-1-azabicyclo[2.2.1]heptane, oxalate] | 
18 | 5.3 nM | 8.3 nM | FC(F)(F)C(F)(F)C(F)(F)COc1nsnc1OC1CN2CCC1C2 (stereo not drawn) [Compound 27, Endo 3-(3-(2,2,3,3,4,4,4-heptafluorobutyl-1-oxy)-1,2,5-thiadiazol-4-yloxy)-1-azabicyclo[2.2.1]heptane, oxalate] | 
19 | 9.1 nM | 3.1 nM | FC(F)(F)CCSc1nsnc1OC1CN2CCC1C2 (stereo not drawn) [Compound 29, Endo 3-(3-(3,3,3-trifluoropropylthio)-1,2,5-thiadiazol-4-yloxy)-1-azabicyclo-[2.2.1]heptane, oxalate] | 
20 | 16 nM | 83 nM | Fc1ccc(CSc2nsnc2OC2CN3CCC2C3)c(F)c1 (stereo not drawn) [Compound 33, Endo 3-(3-[2,4-difluorobenzylthio]-1,2,5-thiadiazol-4-yloxy)-1-azabicyclo-[2.2.1]heptane, oxalate] | 
21 | 4.7 nM | 1 nM | C(#Cc1ccsc1)COc1nsnc1OC1CN2CCC1C2 (stereo not drawn) [Compound 36, Endo 3-(3-[3-(3-thienyl)-2-propyn-1-yloxy]-1,2,5-thiadiazol-4-yloxy)-1-azabicyclo[2.2.1]heptane, oxalate] | 
22 | 43 nM | 1.8 nM | FC(F)(F)COc1nsnc1OC1CN2CCC1C2 (stereo not drawn) [Compound 40, Endo 3-(3-[2,2,2-trifluoroethyl-1-oxy]-1,2,5-thiadiazol-4-yloxy)-1-azabicyclo[2.2.1]heptane, oxalate] | 
